pIC50: −log10 of the molar value.
What was measured:
[1] = target: T1, human full length PIK3KA Wild-type (p110α/p85α complex) (Homo sapiens, UniProt P42336); test: PI3K-alpha kinase (PIK3CA) biochemical activity, wild-type, ADP-Glo; details: PI3K-α (PIK3CA) biochemical
T1 construct: Recombinant, catalytically active human full length PIK3KA Wild-type and H1047R mutant were purchased as 1:1 complex; 6xHis (N); purchased EMD Millipore Sigma 14-602M
Excerpt: (§1) PI3K-Alpha Kinase (PIK3CA) Activity, Wild-Type and H1047R Mutant and Determining IC50 Values for Inhibitors
(§2) Recombinant, catalytically active human full length PIK3KA Wild-type and H1047R mutant were purchased as 1:1 complex of N-terminal 6× his tagged p110α (catalytic) and untagged p85α (regulatory subunit) from EMD Millipore Sigma (cat. no. 14-602M and 14-792M, respectively). PIP2diC8 (Avanti Polar Lipids Inc., cat. no. 850185) or Soy PI (Avanti Polar Lipids Inc., cat. No. 840044P) was used as lipid substrate. PIP2diC8 or PI lyophilized powder was dissolved in milliQ water to a concentration of 1 mM just before use. 10 mM stock compounds in DMSO were serially diluted 1:3 to generate a 10-point curve and plated using an acoustic liquid handler system (Echo 550 series instrument, Labcyte). A 10× intermediate compound plate (200 uM starting compound concentration and 10% DMSO) was prepared before starting the reaction. A typical reaction mixture (50 uL) comprised 40 mM HEPES buffer, pH 7.4, 25 mM MgCl2, 0.01% v/v triton-X-100, 1% v/v DMSO, 20 mM NaCl, 1-5 nM WT or H1047R PI3K protein, 20 uM ATP, and 50 uM PIP2diC8 or Soy PI. 1% DMSO buffer alone without test compound was employed as MAX control (full activity in the absence of any inhibitor), and no enzyme control was used to determine the level of background Adenosine 5′-diphosphate (ADP) (MIN control). First, Wild-type (WT) and H1047R mutant protein in kinase buffer with all components except ATP were incubated with or without compound at 27° C. for 1 h. After the pre-incubation, the reaction was initiated by the addition of 20 uL of 50 uM ATP (20 uM final concentration). The reaction was allowed to proceed until about 10% conversion of ATP (2 uM ADP) at 27° C. After that time, 5 uL of reaction was mixed with 5 uL of ADP-Kinase Glo Reagent (ADP-Glo Kinase assay kit, Promega cat. no. V9102) supplemented with MgCl2 10 mM to stop the reaction and deplete the remaining ATP for 40 min at room temperature. Then, 10 uL of Kinase Detection Reagent (ADP-Glo Kinase assay kit, Promega cat. no. V9102) was added to simultaneously convert ADP to ATP and allow the newly synthesized ATP to be measured using a luciferase/luciferin reaction. After 30 min at room temperature the light generated was measured using a luminometer (EnVision plate reader, Perkin Elmer). Process data through Genedata-Screener tool. Relative IC50 values are determined using luminescence units by calculating percent inhibition with respect to on-plate “MIN” and “MAX” controls. Data was analyzed using a 4-parameter nonlinear logistic equation (four-parameter logistic concentration-response curve): Y=bot+[(top−bot)/1+(x/IC50)slope] where Y=% inhibition, X=concentration yielding y % inhibition, Bottom=minimum value of y attained by curve, Top=maximum value of y attained by curve and Slope=steepness of curve at IC50. % Inh=[(median Max−x/median Max−median Min)]·100 IC50: concentration of compound that reduces a given response (ligand binding, enzyme response) by 50%. IC50 relative: concentration giving half the compound's maximum response.
(§3) For IC50 values shown in Table A, “A” means IC50<0.5 μM; “B” means IC50 ranging between 0.5 μM and 1.0 μM; “C” means IC50 ranging between 1 μM and 5 μM; “D” means IC50 ranging between 5 μM and 10 μM; “E” means IC50>10 μM.

[2] = target: T2, human full length PIK3KA H1047R mutant (p110α/p85α complex) (Homo sapiens, UniProt P42336, H1047R); test: PI3K-alpha kinase (PIK3CA) biochemical activity, H1047R mutant, ADP-Glo; details: for pIC50: PI3K-α (PIK3CA) biochemical, H1047R mutant
T2 construct: Recombinant, catalytically active human full length PIK3KA Wild-type and H1047R mutant were purchased as 1:1 complex; 6xHis (N); purchased EMD Millipore Sigma 14-792M
T2 sequence (P42336 whole entry H1047R): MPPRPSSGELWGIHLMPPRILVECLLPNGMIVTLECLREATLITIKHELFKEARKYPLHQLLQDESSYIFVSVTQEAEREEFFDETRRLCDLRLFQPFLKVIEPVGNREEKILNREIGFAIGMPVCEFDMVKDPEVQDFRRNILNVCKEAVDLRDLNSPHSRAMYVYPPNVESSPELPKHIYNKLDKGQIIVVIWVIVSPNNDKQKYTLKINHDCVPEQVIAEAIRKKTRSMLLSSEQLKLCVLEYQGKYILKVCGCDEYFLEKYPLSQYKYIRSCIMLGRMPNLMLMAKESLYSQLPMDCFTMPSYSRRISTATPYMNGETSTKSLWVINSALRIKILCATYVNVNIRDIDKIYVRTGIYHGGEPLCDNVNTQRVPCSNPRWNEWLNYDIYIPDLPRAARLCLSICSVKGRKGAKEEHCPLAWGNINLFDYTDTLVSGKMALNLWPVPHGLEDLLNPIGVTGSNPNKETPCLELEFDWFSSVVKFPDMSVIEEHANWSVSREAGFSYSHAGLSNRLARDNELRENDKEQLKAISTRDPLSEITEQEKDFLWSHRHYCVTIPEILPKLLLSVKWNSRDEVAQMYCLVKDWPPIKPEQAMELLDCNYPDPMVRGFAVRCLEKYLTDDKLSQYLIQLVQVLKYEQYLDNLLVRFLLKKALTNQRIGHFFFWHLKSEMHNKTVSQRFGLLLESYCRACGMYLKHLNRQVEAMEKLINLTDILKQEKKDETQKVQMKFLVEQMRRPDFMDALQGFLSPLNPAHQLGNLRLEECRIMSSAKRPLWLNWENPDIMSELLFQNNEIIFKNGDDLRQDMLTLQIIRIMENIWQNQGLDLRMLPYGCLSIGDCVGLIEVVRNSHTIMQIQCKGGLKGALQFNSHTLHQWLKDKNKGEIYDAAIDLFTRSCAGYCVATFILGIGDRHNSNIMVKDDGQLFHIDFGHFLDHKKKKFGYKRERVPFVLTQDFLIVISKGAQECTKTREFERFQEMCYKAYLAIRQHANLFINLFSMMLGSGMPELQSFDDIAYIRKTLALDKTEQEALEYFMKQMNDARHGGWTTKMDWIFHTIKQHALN
T2 sequence (P27986 whole entry partner): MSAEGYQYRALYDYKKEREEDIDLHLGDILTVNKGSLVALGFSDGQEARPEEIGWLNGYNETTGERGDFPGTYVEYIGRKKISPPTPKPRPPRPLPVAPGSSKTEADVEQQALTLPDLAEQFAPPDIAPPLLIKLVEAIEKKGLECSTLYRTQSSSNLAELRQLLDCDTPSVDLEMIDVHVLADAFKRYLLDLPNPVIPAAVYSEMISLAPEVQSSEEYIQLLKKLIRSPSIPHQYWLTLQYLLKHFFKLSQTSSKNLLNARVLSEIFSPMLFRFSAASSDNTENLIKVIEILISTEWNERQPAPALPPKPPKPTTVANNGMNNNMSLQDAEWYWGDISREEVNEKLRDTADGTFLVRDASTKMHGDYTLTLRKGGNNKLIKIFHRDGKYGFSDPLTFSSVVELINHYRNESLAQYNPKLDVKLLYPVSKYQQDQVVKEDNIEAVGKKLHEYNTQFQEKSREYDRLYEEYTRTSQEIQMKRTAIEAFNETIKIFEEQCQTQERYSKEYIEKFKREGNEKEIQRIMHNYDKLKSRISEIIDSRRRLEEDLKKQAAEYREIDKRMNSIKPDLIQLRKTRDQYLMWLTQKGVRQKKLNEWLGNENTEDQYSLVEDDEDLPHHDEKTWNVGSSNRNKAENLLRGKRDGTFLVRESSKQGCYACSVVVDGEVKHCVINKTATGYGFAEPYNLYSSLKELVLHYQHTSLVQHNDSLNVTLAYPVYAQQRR
Excerpt: as §1, §2, §3

[3] = PIP2diC8 lipid substrate (footnote 1)

Compound | pIC50 ([1]; Soy PI lipid substrate) | pIC50 ([2]; Soy PI lipid substrate) | pIC50 [1, 3] | pIC50 [2, 3] | IC50 WT/IC50 H1047R ([2]; ratio of biochemical IC50 wild-type to H1047R mutant, Soy PI lipid substrate)
Cc1cc([C@@H](C)Nc2ccccc2C(=O)O)c2oc(-c3ccccc3F)cc(=O)c2c1 [Example 11, 2-[[(1R)-1-[2-(2-Fluorophenyl)-6-methyl-4-oxo-chromen-8-yl]ethyl]amino]benzoic acid] | 5.30 to 6.00 | > 6.30 | – | – | –
Cc1cc(C(C)Nc2ccccc2C(=O)O)c2oc(-c3ccc(C4(C)CC4)cc3)cc(=O)c2c1 (stereo not drawn) [Example 12, 2-[1-[6-Methyl-2-[4-(1-methylcyclopropyl)-phenyl]-4-oxo-chromen-8-yl]ethylamino]benzoic acid 2,2,2-trifluoroacetic acid] | 5.00 to 5.30 | 6.00 to 6.30 | – | – | –
Cc1cc(C(C)Nc2ccccc2C(=O)O)c2oc(-c3cccc(-c4cnn(C)c4)c3)cc(=O)c2c1.O=C(O)C(F)(F)F (stereo not drawn) [Example 13, 2-[1-[6-Methyl-2-[3-(1-methylpyrazol-4-yl)phenyl]-4-oxo-chromen-8-yl]ethylamino]benzoic acid 2,2,2-trifluoroacetic acid] | 5.30 to 6.00 | > 6.30 | – | – | *For Example 13, IC50 WT/IC50 H1047R = 7.7
Cc1cc([C@@H](C)Nc2ccccc2C(=O)O)c2oc(-c3cccc(C#N)c3)cc(=O)c2c1 [Example 16, 2-[[(1R)-1-[2-(3-Cyanophenyl)-6-methyl-4-oxo-chromen-8-yl]ethyl]amino]benzoic acid] | – | – | 6.00 to 6.30 | > 6.30 | –
Cc1cc([C@@H](C)Nc2ccccc2C(=O)O)c2oc(-c3ccc(C#N)cc3)cc(=O)c2c1 [Example 17, 2-[[(1R)-1-[2-(4-Cyanophenyl)-6-methyl-4-oxo-chromen-8-yl]ethyl]amino]benzoic acid] | – | – | > 6.30 | > 6.30 | –
Cc1cc([C@@H](C)Nc2ccccc2C(=O)O)c2oc(-c3cccc(F)c3)cc(=O)c2c1 [Example 18, 2-[[(1R)-1-[2-(3-Fluorophenyl)-6-methyl-4-oxo-chromen-8-yl]ethyl]amino]benzoic acid] | – | – | > 6.30 | > 6.30 | –
Cc1cc([C@@H](C)Nc2ccccc2C(=O)O)c2oc(-c3ccc(F)cc3)cc(=O)c2c1 [Example 19, 2-[[(1R)-1-[2-(4-Fluorophenyl)-6-methyl-4-oxo-chromen-8-yl]ethyl]amino]benzoic acid] | – | – | 5.30 to 6.00 | > 6.30 | –
Cc1cc([C@@H](C)Nc2ccc(F)cc2C(=O)O)c2oc(-c3ccccc3)cc(=O)c2c1 [Example 20, 5-Fluoro-2-[[(1R)-1-(6-methyl-4-oxo-2-plienyl-chromen-8-yl)ethyl]amino]benzoic acid] | – | – | > 6.30 | > 6.30 | –
Cc1cc([C@@H](C)Nc2ccccc2C(=O)O)c2oc(-c3ccccc3)cc(=O)c2c1 [Example 22, 2-[[(1R)-1-(6-Methyl-4-oxo-2-phenyl-chromen-8-yl)ethyl]amino]benzoic acid] | – | – | > 6.30 | > 6.30 | –
Cc1cc(C(C)Nc2sc(C)nc2C(=O)O)c2oc(-c3ccccc3)cc(=O)c2c1 (stereo not drawn) [Example 23, 2-Methyl-5-[1-(6-methyl-4-oxo-2-phenyl-chromen-8-yl)ethylamino]-thiazole-4-carboxylic acid 2,2,2-trifluoroacetic acid] | 5.00 to 5.30 | > 6.30 | – | – | –
C[C@@H](Nc1ccccc1C(=O)O)c1cc(F)cc2c(=O)cc(-c3ccccc3)oc12 [Example 24, 2-[[(1R)-1-(6-Fluoro-4-oxo-2-phenyl-chromen-8-yl)ethyl]amino]benzoic acid] | 5.30 to 6.00 | > 6.30 | – | – | –

The next lines start with results.

pIC50 ([1]; Soy PI lipid substrate) | pIC50 ([2]; Soy PI lipid substrate) | pIC50 [1, 3] | pIC50 [2, 3] | Compound | IC50 WT/IC50 H1047R ([2]; ratio of biochemical IC50 wild-type to H1047R mutant, Soy PI lipid substrate)
5.30 to 6.00 | > 6.30 | – | – | Cc1cc([C@@H](C)Nc2ccc(C(F)(F)F)nc2C(=O)O)c2oc(-c3ccccc3)cc(=O)c2c1 [Example 27, 3-[[(1R)-1-(6-Methyl-4-oxo-2-phenyl-chromen-8-yl)ethyl]amino]-6-(trifluoromethyl)-pyridine-2-carboxylic acid] | –
< 5.00 | > 6.30 | – | – | Cc1cc([C@@H](C)Nc2ccccc2C(=O)O)c2oc(-c3ccccc3C#N)c(C)c(=O)c2c1 [Example 34, 2-[[(1R)-1-[2-(2-Cyanophenyl)-3,6-dimethyl-4-oxo-chromen-8-yl]ethyl]amino]benzoic acid] | –
< 5.00 | > 6.30 | – | – | Cc1cc(C(C)Nc2ccccc2C(=O)O)c2oc(-c3ccc(N4CCCC4)cc3)cc(=O)c2c1 (stereo not drawn) [Example 45, 2-[1-[6-Methyl-4-oxo-2-(4-pyrrolidin-1-ylphenyl)chromen-8-yl]ethylamino]benzoic acid 2,2,2-trifluoroacetic acid] | –
5.00 to 5.30 | > 6.30 | – | – | Cc1cc([C@@H](C)Nc2ccc(C)nc2C(=O)O)c2oc(-c3ccccc3)cc(=O)c2c1 [Example 46, 6-Methyl-3-[[(1R)-1-(6-methyl-4-oxo-2-phenyl-chromen-8-yl)ethyl]amino]-pyridine-2-carboxylic acid] | –
5.30 to 6.00 | > 6.30 | – | – | Cc1cc([C@@H](C)Nc2ccccc2C(=O)O)c2oc(-c3ccc(C#N)cc3F)cc(=O)c2c1 [Example 51, 2-[[(1R)-1-[2-(4-Cyano-2-fluoro-phenyl)-6-methyl-4-oxo-chromen-8-yl]ethyl]amino]benzoic acid 2,2,2-trifluoroacetic acid] | –
5.30 to 6.00 | > 6.30 | – | – | Cc1cc([C@@H](C)Nc2ccccc2C(=O)O)c2oc(-c3ccc(C#N)c(F)c3)cc(=O)c2c1 [Example 56, 2-[[(1R)-1-[2-(4-Cyano-3-fluoro-phenyl)-6-methyl-4-oxo-chromen-8-yl]ethyl]amino]benzoic acid 2,2,2-trifluoroacetic acid] | –
5.30 to 6.00 | > 6.30 | – | – | Cc1cc([C@@H](C)Nc2ccccc2C(=O)O)c2oc(-c3ccc(F)cc3F)cc(=O)c2c1 [Example 57, 2-[[(1R)-1-[2-(2,4-Difluorophenyl)-6-methyl-4-oxo-chromen-8-yl]ethyl]amino]benzoic acid 2,2,2-trifluoroacetic acid] | –
< 5.00 | > 6.30 | – | – | CC(Nc1ccccc1C(=O)O)c1cc(F)c(F)c2c(=O)cc(-c3ccccc3)oc12 (stereo not drawn) [Example 64, 2-[1-(5,6-Difluoro-4-oxo-2-phenyl-chromen-8-yl)ethylamino]benzoic acid 2,2,2-trifluoroacetic acid] | –
< 5.00 | < 5.00 | – | – | Cc1cc([C@@H](C)Nc2c(Cl)ccc(F)c2C(=O)O)c2oc(-c3ccccc3)c(C)c(=O)c2c1 [Example 65, 3-Chloro-2-[[(1R)-1-(3,6-dimethyl-4-oxo-2-phenyl-chromen-8-yl)ethyl]amino]-6-fluoro-benzoic acid] | –
5.30 to 6.00 | > 6.30 | – | – | Cc1cc([C@@H](C)Nc2ccccc2C(=O)O)c2oc(-c3cccc(C(F)F)c3)cc(=O)c2c1 [Example 71, 2-[[(1R)-1-[2-[3-(Difluoromethyl)phenyl]-6-methyl-4-oxo-chromen-8-yl]ethyl]amino]benzoic acid] | –
5.30 to 6.00 | 5.30 to 6.00 | – | – | Cc1c(-c2ccccc2)oc2c([C@@H](C)Nc3ccccc3C(=O)O)cc(F)cc2c1=O [Example 72, 2-[[(1R)-1-(6-Fluoro-3-methyl-4-oxo-2-phenyl-chromen-8-yl)ethyl]amino]benzoic acid 2,2,2-trifluoroacetic acid] | –

From patent US11873295B2, “Allosteric chromenone inhibitors of phosphoinositide 3-kinase (PI3K) for the treatment of disease” (Petra Pharma Corporation, priority 2021, dated 2024)
